What was measured:
[1] = biological target: hNurr1_RXRγFL (NURR1/RXRγ heterodimer) (Homo sapiens, UniProt P43354+P48443); test: Transactivation assay in Cos-7 cells, NURR-1-Gal4 / RXRγ, luciferase reporter; format: cell-based; settings: for Emax: COS-7, read-out: hNurr1_RXRγFL Eff (%), efficacy in % relative to the reference XCT0135908 at 2·10^−5 M (=100%); for EC50: Cos-7 cells, overnight incubation
How it was run: (§1)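 Cos-7 cells co-transfected with human NURR-1-Gal4 chimera, human RXRα or RXRγ, and 5Gal4pGL3-TK-Luc reporter; compounds added at 10^−4 to 3·10^−10 M final, overnight incubation, luciferase read. Induction over each heterodimer's baseline expressed as % of reference RXR agonist XCT0135908 (2·10^−5 M) taken as 100%.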

[2] = biological target: hNurr1_RXRαFL (NURR1/RXRα heterodimer) (Homo sapiens, UniProt P19793+P43354); test: Transactivation assay in Cos-7 cells, NURR-1-Gal4 / RXRα, luciferase reporter; format: cell-based; settings: for Emax: COS-7, read-out: hNurr1_RXRαFL Eff (%), efficacy in % relative to the reference XCT0135908 at 2·10^−5 M (=100%); for EC50: Cos-7 cells, overnight incubation
Chain of hNurr1_RXRαFL (NURR1/RXRα heterodimer) (P19793 whole entry, the tested form may be a part): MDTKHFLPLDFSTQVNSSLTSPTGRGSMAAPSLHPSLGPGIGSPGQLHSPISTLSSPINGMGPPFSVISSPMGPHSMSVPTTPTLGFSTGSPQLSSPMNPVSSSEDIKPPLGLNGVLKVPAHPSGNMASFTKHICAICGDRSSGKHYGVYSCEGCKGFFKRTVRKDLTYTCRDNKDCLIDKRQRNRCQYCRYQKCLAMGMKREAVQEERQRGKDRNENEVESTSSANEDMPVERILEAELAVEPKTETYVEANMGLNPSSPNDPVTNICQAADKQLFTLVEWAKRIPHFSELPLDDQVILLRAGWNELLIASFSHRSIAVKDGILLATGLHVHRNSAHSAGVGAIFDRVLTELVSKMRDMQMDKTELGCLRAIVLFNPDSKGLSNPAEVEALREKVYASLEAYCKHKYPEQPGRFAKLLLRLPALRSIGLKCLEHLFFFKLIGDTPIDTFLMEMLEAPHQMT
Chain of hNurr1_RXRαFL (NURR1/RXRα heterodimer) (P43354 328-598): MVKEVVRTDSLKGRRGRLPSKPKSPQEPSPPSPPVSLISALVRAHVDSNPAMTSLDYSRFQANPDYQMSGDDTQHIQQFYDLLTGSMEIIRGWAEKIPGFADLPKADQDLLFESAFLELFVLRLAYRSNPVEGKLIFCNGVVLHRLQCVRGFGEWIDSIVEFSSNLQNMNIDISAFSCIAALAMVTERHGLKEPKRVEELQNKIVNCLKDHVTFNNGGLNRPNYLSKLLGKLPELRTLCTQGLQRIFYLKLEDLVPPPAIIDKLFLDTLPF
How it was run: as §1

[3] = efficacy in % relative to the reference XCT0135908 at 2·10^−5 M (=100%)

Chain of hNurr1_RXRγFL (NURR1/RXRγ heterodimer) (P43354 328-598): as above
Chain of hNurr1_RXRγFL (NURR1/RXRγ heterodimer) (P48443 whole entry, the tested form may be a part): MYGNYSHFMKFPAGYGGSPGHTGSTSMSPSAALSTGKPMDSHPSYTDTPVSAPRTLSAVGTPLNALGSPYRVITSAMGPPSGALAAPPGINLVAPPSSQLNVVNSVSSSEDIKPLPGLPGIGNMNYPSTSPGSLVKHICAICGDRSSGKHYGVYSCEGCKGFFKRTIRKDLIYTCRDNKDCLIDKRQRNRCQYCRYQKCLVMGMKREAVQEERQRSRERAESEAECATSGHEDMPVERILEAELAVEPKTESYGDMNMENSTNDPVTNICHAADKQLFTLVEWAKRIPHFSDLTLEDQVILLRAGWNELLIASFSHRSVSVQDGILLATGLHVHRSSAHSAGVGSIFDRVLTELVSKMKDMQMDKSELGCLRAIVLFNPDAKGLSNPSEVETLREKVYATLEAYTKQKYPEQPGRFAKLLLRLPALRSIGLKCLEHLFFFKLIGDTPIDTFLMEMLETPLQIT

COC(=O)c1ccc(Cc2cc3cc(C(F)(F)F)ccc3n2S(=O)(=O)c2cccc(C(C)(C)C)c2)s1 [Example 190, 5-[[1-[[3-(1,1-dimethylethyl)-phenyl]sulfonyl]-5-trifluoromethyl-1H-indol-2-yl]-methyl]-thiophene-2-carboxylic acid, methyl ester]
Emax [1]: 107% | EC50 [1]: 13 nM | Emax [2]: 97% | EC50 [2]: 0.2 nM

CC(C)(C)c1cccc(S(=O)(=O)n2c(Cc3ccc(C4=NOC(=O)C4)cc3)cc3cc(C(F)(F)F)ccc32)c1 [Example 228, 3-[4-[[1-[[3-(1,1-dimethylethyl)phenyl]sulfonyl]-5-(trifluoromethyl)-1H-indol-2-yl]methyl]-phenyl]-4H-isoxazol-5-one]
Emax [1]: 63% | EC50 [1]: 335 nM | Emax [2]: 90% | EC50 [2]: 113 nM

CC(C)c1cccc(S(=O)(=O)n2c(Cc3ccc(C(=O)O)cc3)cc3cc(N4CCCC4)ccc32)c1 [Example 116, 4-[[1-[[3-(1-methylethyl)phenyl]sulfonyl]-5-(pyrrolidin)-1H-indol-2-yl]methyl]benzoic acid]
EC50 [1]: 1440 nM | hNurr1_RXRγFL Eff (%) [1, 3]: 50% | EC50 [2]: 871 nM | hNurr1_RXRαFL Eff (%) [2, 3]: 74%

O=C(O)c1ccc(Cc2cc3cc(C(F)(F)F)ccc3n2S(=O)(=O)c2ccc(OC(F)F)c(Cl)c2)cc1 [Example 124, 4-[[1-[3-chloro-4-difluoromethoxy-phenylsulfonyl]-5-(trifluoromethyl)-1H-indol-2-yl]methyl]benzoic acid]
Emax [1]: 44% | EC50 [1]: 697 nM | Emax [2]: 59% | EC50 [2]: 349 nM

CC1(C)CCc2cc(S(=O)(=O)n3c(Cc4ccc(C(=O)O)cc4)cc4cc(C(F)(F)F)ccc43)ccc2O1 [Example 132, 4-[[1-[(3,4-dihydro-2,2-dimethyl-2H-1-benzopyran-6-yl)sulfonyl]-5-(trifluoromethyl)-1H-indol-2-yl]methyl]benzoic acid]
Emax [1]: 28% | EC50 [1]: 352 nM | Emax [2]: 45% | EC50 [2]: 221 nM

O=C(O)c1ccc(Cc2cc3cc(Cl)ccc3n2S(=O)(=O)c2cccc(Cl)c2)cc1 [Example 164, 4-[[1-[3-chloro-phenylsulfonyl]-5-(chloro)-1H-indol-2-yl]methyl]benzoic acid]
Emax [1]: 47% | EC50 [1]: 851 nM | Emax [2]: 53% | EC50 [2]: 753 nM

O=C(O)c1ccc(Cc2cc3cc(C(F)(F)F)ccc3n2S(=O)(=O)c2ccc(OC(F)(F)F)cc2)cc1 [Example 142, 4-[[1-[4-trifluoromethoxy-phenylsulfonyl]-5-(trifluoromethyl)-1H-indol-2-yl]methyl]benzoic acid]
Emax [1]: 19% | EC50 [1]: 816 nM | Emax [2]: 38% | EC50 [2]: 459 nM

Cc1cc(Cc2cc3cc(C(F)(F)F)ccc3n2S(=O)(=O)c2cccc(C(C)(C)C)c2)c(F)cc1C(=O)O [Example 196, 4-[[1-[[3-(1,1-dimethylethyl)phenyl]sulfonyl]-5-trifluoromethyl-1H-indol-2-yl]methyl]-5-fluoro-2-methyl-benzoic acid]
Emax [1]: 91% | EC50 [1]: 479 nM | Emax [2]: 90% | EC50 [2]: 240 nM

CC(C)(C)c1cccc(S(=O)(=O)n2c(Cc3ccc(-c4noc(=O)[nH]4)cc3)cc3cc(C(F)(F)F)ccc32)c1 [Example 222, 3-[[4-[1-[[3-(1,1-dimethylethyl)phenyl]sulfonyl]-5-(trifluoromethyl)-1H-indol-2-yl]methyl]-phenyl]-4H-[1,2,4]oxadiazol-5-one]
Emax [1]: 55% | EC50 [1]: 676 nM | Emax [2]: 62% | EC50 [2]: 367 nM

O=C(O)c1ccc(Cc2cc3cc(Cl)ccc3n2S(=O)(=O)c2cccc(C(F)(F)F)c2)cc1 [Example 28, 4-[[5-chloro-1-[[3-(trifluoromethyl)phenyl]sulfonyl]-1H-indol-2-yl]-methyl]benzoic acid]
Emax [1]: 67% | EC50 [1]: 443 nM | Emax [2]: 78% | EC50 [2]: 332 nM

CC(C)(C)c1cccc(S(=O)(=O)n2c(Cc3csc(C(=O)O)c3)cc3cc(C(F)(F)F)ccc32)c1 [Example 70, 4-[[1-[[3-(1,1-dimethylethyl)-phenyl]sulfonyl]-5-trifluoromethyl-1H-indol-2-yl]methyl]-thiophene-2-carboxylic acid]
Emax [1]: 91% | EC50 [1]: 8 nM | Emax [2]: 94% | EC50 [2]: 5 nM

CCCCCc1ccc(S(=O)(=O)n2c(Cc3ccc(C(=O)O)cc3)cc3cc(Cl)ccc32)cc1 [Example 170, 4-[[1-[4-pentyl-phenylsulfonyl]-5-(chloro)-1H-indol-2-yl]methyl]benzoic acid]
Emax [1]: 26% | EC50 [1]: > 10000 nM | Emax [2]: 42% | EC50 [2]: 1740 nM

O=C(O)c1ccc(Cc2cc3cc(Cl)ccc3n2S(=O)(=O)c2cc3ccccc3o2)cc1 [Example 177, 4-[[1-[benzofuran-2-sulfonyl]-5-(chloro)-1H-indol-2-yl]methyl]benzoic acid]
Emax [1]: 17% | EC50 [1]: > 10000 nM | Emax [2]: 39% | EC50 [2]: > 10000 nM

CC(C)c1ccc(S(=O)(=O)n2c(Cc3ccc(C(=O)O)c(Cl)c3)cc3cc(C(F)(F)F)ccc32)cc1 [Example 209, 4-[[1-[[4-(1-methylethyl)-phenyl]sulfonyl]-5-trifluoromethyl-1H-indol-2-yl]methyl]-2-chlorobenzoic acid]
Emax [1]: 51% | EC50 [1]: 741 nM | Emax [2]: 69% | EC50 [2]: 333 nM

CC(C)c1cccc(S(=O)(=O)n2c(Cc3ccc(C(=O)O)cc3)cc3cc(Cl)ccc32)c1 [Example 51, 4-[[5-chloro-1-[[3-(1-methylethyl)phenyl]sulfonyl]-1H-indol-2-yl]-methyl]benzoic acid]
Emax [1]: 69% | EC50 [1]: 1130 nM | Emax [2]: 74% | EC50 [2]: 801 nM

CCC(C)(C)c1ccc(S(=O)(=O)n2c(Cc3ccc(C(=O)O)cc3)cc3cc(C(F)(F)F)ccc32)cc1 [Example 12, 4-[[1-[[4-(1,1-dimethylpropyl)phenyl]sulfonyl]-5-(trifluoromethyl)-1H-indol-2-yl]methyl]benzoic acid]
Emax [1]: 45% | EC50 [1]: 148 nM | Emax [2]: 54% | EC50 [2]: 113 nM

CS(=O)(=O)n1c(Cc2ccc(C(=O)O)cc2)cc2cc(Cl)ccc21 [Example 181, 4-[[5-chloro-1-(methylsulfonyl)-1H-indol-2-yl]methyl]benzoic acid]
Emax [1]: 152% | EC50 [1]: 4070 nM | Emax [2]: 111% | EC50 [2]: 1360 nM

COc1ccc(S(=O)(=O)n2c(Cc3ccc(C(=O)O)cc3)cc3cc(C(F)(F)F)ccc32)cc1 [Example 138, 4-[[1-[4-methoxy-phenylsulfonyl]-5-(trifluoromethyl)-1H-indol-2-yl]methyl]benzoic acid]
Emax [1]: 28% | EC50 [1]: 583 nM | Emax [2]: 41% | EC50 [2]: 344 nM

CC(C)COc1ccc(S(=O)(=O)n2c(Cc3ccc(C(=O)O)cc3)cc3cc(C(F)(F)F)ccc32)cc1 [Example 127, 4-[[1-[4-isobutoxy-phenylsulfonyl]-5-(trifluoromethyl)-1H-indol-2-yl]methyl]benzoic acid]
Emax [1]: 45% | EC50 [1]: 575 nM | Emax [2]: 48% | EC50 [2]: 263 nM

CC(C)(C)c1cccc(S(=O)(=O)n2c(Cc3ccc(C=C4SC(=S)NC4=O)cc3)cc3cc(C(F)(F)F)ccc32)c1 [Example 223]
Emax [1]: 30% | EC50 [1]: 3390 nM | Emax [2]: 72% | EC50 [2]: 1320 nM

COc1cccc(S(=O)(=O)n2c(Cc3ccc(C(=O)O)cc3)cc3cc(Cl)ccc32)c1 [Example 166, 4-[[1-[3-methoxy-phenylsulfonyl]-5-(chloro)-1H-indol-2-yl]methyl]benzoic acid]
Emax [1]: 27% | EC50 [1]: 1070 nM | Emax [2]: 50% | EC50 [2]: 681 nM

Cc1c(Cc2ccc(C(=O)O)cc2)n(S(=O)(=O)c2cccc(C(C)(C)C)c2)c2ccc(C(F)(F)F)cc12 [Example 189, 4-[[1-[[3-(1,1-dimethylethyl)phenyl]sulfonyl]-3-methyl-5-(trifluoromethyl)-1H-indol-2-yl]methyl]-benzoic acid]
Emax [1]: 90% | EC50 [1]: 263 nM | Emax [2]: 83% | EC50 [2]: 120 nM

O=C(O)c1ccc(Cc2cc3cc(C(F)(F)F)ccc3n2S(=O)(=O)c2cc3ccccc3o2)cc1 [Example 122, 4-[[1-[benzofuran-2-sulfonyl]-5-(trifluoromethyl)-1H-indol-2-yl]methyl]benzoic acid]
Emax [1]: 54% | EC50 [1]: 680 nM | Emax [2]: 62% | EC50 [2]: 353 nM

CN1CCOc2ccc(S(=O)(=O)n3c(Cc4ccc(C(=O)O)s4)cc4cc(C(F)(F)F)ccc43)cc21 [Example 73, 5-[[1-[[4-methyl-3,4-dihydro-2H-benzo[1,4]oxazin-6-yl]-sulfonyl]-5-trifluoromethyl-1H-indol-2-yl]methyl]-thiophene-2-carboxylic acid]
Emax [1]: 89% | EC50 [1]: 66 nM | Emax [2]: 94% | EC50 [2]: 37 nM

O=C(O)c1cncc(Cc2cc3cc(Cl)ccc3n2S(=O)(=O)c2ccc3c(c2)OCCO3)c1 [Example 213, 3-[[1-[(2,3-dihydro-benzo[1,4]dioxin-6-yl)sulfonyl]-5-chloro-1H-indol-2-yl]methyl]-5-pyridine carboxylic acid]
Emax [1]: 31% | EC50 [1]: > 10000 nM | Emax [2]: 45% | EC50 [2]: 3000 nM

O=C(O)c1ccc(Cc2cc3cc(C(F)(F)F)ccc3n2S(=O)(=O)c2ccc3ccccc3c2)cc1 [Example 25, 4-[[1-(2-naphthalenylsulfonyl)-5-(trifluoromethyl)-1H-indol-2-yl]methyl]benzoic acid]
Emax [1]: 33% | EC50 [1]: 864 nM | Emax [2]: 47% | EC50 [2]: 496 nM
